From patent publication US20200131669A1, “CYCLIC PEPTIDE COMPOUND HAVING HIGH MEMBRANE PERMEABILITY, AND LIBRARY CONTAINING SAME” (Chugai Seiyaku Kabushiki Kaisha, priority 2017, published 2020) come the findings set out here.

Positions of bridges follow the written chain, without caps; N, C: chain ends. Non-standard residues stand in square brackets, D forms with d. Residues, ends and D or L forms follow the SMILES beside them. *: point of attachment. Phe(4-CF3) = N[C@@H](Cc1ccc(C(F)(F)F)cc1)C(=O)O; NMeF = CN[C@@H](Cc1ccccc1)C(=O)O; NMeI = CC[C@H](C)[C@H](NC)C(=O)O; NMeD = CN[C@@H](CC(=O)O)C(=O)O; NMeL = CN[C@@H](CC(C)C)C(=O)O; NMeV = CN[C@H](C(=O)O)C(C)C; Pip = O=C(O)[C@@H]1CCCCN1; NMeA = CN[C@@H](C)C(=O)O; Piperidide = C1CCN(*)CC1; NPrGly = CCCNCC(=O)O; NEtG = CCNCC(=O)O; Sar = CNCC(=O)O; tBu = CC(C)(C)*

The first series is described as follows: Caco-2 membrane permeability, improved method as used in the following Examples (96-well, 20 to 24 h preincubation). It is filed as in vitro ADME. To be noted: human, Caco-2, Caco-2 (cm/sec). The procedure, abridged: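 Papp (cm/sec) was derived from LC/MS of basal samples collected 180 min after apical dosing in FaSSIF/HBSS pH 6.0 with 1% DMSO, against a basal HBSS pH 7.4 receiver containing 4% BSA. Three-week Caco-2 cultures were first preincubated with compound in DMEM+FaSSIF at 37 °C for 20–24 h.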
As for `CC(C)C[C@H]1C(=O)N(C)[C@@H](C)C(=O)N(C)[C@@H](Cc2ccccc2)C(=O)N[C@@H]([C@@H](C)O)C(=O)N(C)[C@@H](CC(C)C)C(=O)N[C@@H](Cc2ccc(C(F)(F)F)cc2)C(=O)N2CCC[C@H]2C(=O)N[C@H](C(=O)N2CCCCC2)CC(=O)N1C` [pd135] ([NMeL][NMeA][NMeF]T[NMeL][Phe(4-CF3)]PD-Piperidide; lactam N-8), the Papp A→B at 180 min was determined as 1.3 ×10⁻⁶ cm/s.

As to `CC(C)C[C@H]1C(=O)N[C@@H]([C@@H](C)O)C(=O)N2CCC[C@H]2C(=O)N(C)[C@@H](C)C(=O)N[C@@H](Cc2ccc(C(F)(F)F)cc2)C(=O)N(C)[C@@H](CC(C)C)C(=O)N(C)[C@@H](CC(C)C)C(=O)N[C@H](C(=O)N2CCCCC2)CC(=O)N1C` [pd136] ([NMeL]TP[NMeA][Phe(4-CF3)][NMeL][NMeL]D-Piperidide; lactam N-8), the Papp A→B at 180 min was 1.6 ×10⁻⁶ cm/s.

In turn, `CC(C)C[C@H]1C(=O)N[C@H](C(=O)N2CCCCC2)CC(=O)N[C@H](C)C(=O)N(C)[C@@H](CC(C)C)C(=O)N[C@@H](COC(C)(C)C)C(=O)N(C)[C@@H](CC(C)C)C(=O)N2CCCC[C@H]2C(=O)N(C)[C@@H](C)C(=O)N[C@@H]([C@@H](C)O)C(=O)N(C)[C@@H](Cc2ccccc2)C(=O)N[C@@H](Cc2ccc(C(F)(F)F)cc2)C(=O)N1C` [pd137] ([dA][NMeL]S(tBu)[NMeL][Pip][NMeA]T[NMeF][Phe(4-CF3)][NMeL]D-Piperidide; lactam N-11) registered a Papp A→B at 180 min of 2.2 ×10⁻⁶ cm/s.

For the molecule `CC(C)C[C@H]1C(=O)N[C@@H](COC(C)(C)C)C(=O)N(C)[C@@H](Cc2ccccc2)C(=O)N(C)[C@@H](C)C(=O)N[C@H](C(=O)N2CCCCC2)CC(=O)N[C@H](C(C)C)C(=O)N(C)[C@@H](CC(C)C)C(=O)N[C@@H](Cc2ccc(C(F)(F)F)cc2)C(=O)N(C)[C@@H](CC(C)C)C(=O)N[C@@H]([C@@H](C)O)C(=O)N(C)CC(=O)N1C` [pd138] ([dV][NMeL][Phe(4-CF3)][NMeL]T[Sar][NMeL]S(tBu)[NMeF][NMeA]D-Piperidide; lactam N-11), the Papp A→B at 180 min is 2.6 ×10⁻⁶ cm/s.

As to `CC(C)C[C@H]1C(=O)N(C)[C@@H](CC(C)C)C(=O)N[C@@H](COC(C)(C)C)C(=O)N(C)[C@@H](C(C)C)C(=O)N[C@H](C(=O)N2CCCCC2)CC(=O)N(C)CC(=O)N(C)[C@@H](Cc2ccccc2)C(=O)N[C@@H](Cc2ccc(C(F)(F)F)cc2)C(=O)N(C)[C@@H](CC(C)C)C(=O)N[C@@H]([C@@H](C)O)C(=O)N(C)CC(=O)N1C` [pd140] ([Sar][NMeF][Phe(4-CF3)][NMeL]T[Sar][NMeL][NMeL]S(tBu)[NMeV]D-Piperidide; lactam N-11), the Papp A→B at 180 min was determined as 2.5 ×10⁻⁶ cm/s.

`CC(C)C[C@H]1C(=O)N[C@H](C(=O)N2CCCCC2)CC(=O)N[C@H](C)C(=O)N(C)[C@@H](CC(C)C)C(=O)N2CCCC[C@H]2C(=O)N(C)[C@@H](CC(C)C)C(=O)N2CCCC[C@H]2C(=O)N(C)[C@@H](C)C(=O)N[C@@H]([C@@H](C)O)C(=O)N(C)[C@@H](Cc2ccccc2)C(=O)N[C@@H](Cc2ccc(C(F)(F)F)cc2)C(=O)N1C` [pd141] ([dA][NMeL][Pip][NMeL][Pip][NMeA]T[NMeF][Phe(4-CF3)][NMeL]D-Piperidide; lactam N-11) returned a Papp A→B at 180 min of 2.1 ×10⁻⁶ cm/s.

`CC[C@H](C)[C@H]1C(=O)N[C@@H]([C@@H](C)O)C(=O)N(C)CC(=O)N(C)[C@@H](CC(C)C)C(=O)N[C@H](C(=O)N2CCCCC2)CC(=O)N(C)[C@@H](C)C(=O)N[C@@H](CC(C)C)C(=O)N(C)[C@@H](CC(C)C)C(=O)N(C)[C@@H](CC(C)C)C(=O)N[C@@H](Cc2ccc(C(F)(F)F)cc2)C(=O)N(C)[C@@H](C)C(=O)N1C` [pd142] ([NMeA]L[NMeL][NMeL][Phe(4-CF3)][NMeA][NMeI]T[Sar][NMeL]D-Piperidide; lactam N-11) came in with a Papp A→B at 180 min of 2.9 ×10⁻⁶ cm/s.

As for `CCN1CC(=O)N[C@@H]([C@@H](C)O)C(=O)N(C)[C@@H](CC(C)C)C(=O)N(C)[C@@H](CC(C)C)C(=O)N[C@@H](Cc2ccc(C(F)(F)F)cc2)C(=O)N[C@H](C(=O)N2CCCCC2)CC(=O)N[C@@H](COC(C)(C)C)C(=O)N(C)[C@@H](CC(C)C)C1=O` [pd143] (S(tBu)[NMeL][NEtG]T[NMeL][NMeL][Phe(4-CF3)]D-Piperidide; lactam N-8), the Papp A→B at 180 min was 1.1 ×10⁻⁶ cm/s.

The molecule `CC[C@H](C)[C@@H]1NC(=O)[C@H](CC(C)C)NC(=O)[C@H](CC(C)C)N(C)C(=O)[C@H](C)NC(=O)C[C@@H](C(=O)N2CCCCC2)NC(=O)[C@H](CC(C)C)N(C)C(=O)[C@H]([C@@H](C)O)NC(=O)[C@H](Cc2ccc(C(F)(F)F)cc2)NC(=O)[C@H](CC(C)C)N(C)C1=O` [pd144] (A[NMeL]LI[NMeL][Phe(4-CF3)]T[NMeL]D-Piperidide; lactam N-9) came in with a Papp A→B at 180 min of 2.1 ×10⁻⁶ cm/s.

For `CC(C)C[C@@H]1NC(=O)[C@H](CC(C)C)N(C)C(=O)[C@H](C(C)C)NC(=O)C[C@@H](C(=O)N2CCCCC2)NC(=O)[C@H](CC(C)C)N(C)C(=O)[C@H](Cc2ccccc2)N(C)C(=O)[C@H]([C@@H](C)O)NC(=O)[C@H](Cc2ccc(C(F)(F)F)cc2)NC(=O)[C@H](C)N(C)C1=O` [pd145] (V[NMeL]L[NMeA][Phe(4-CF3)]T[NMeF][NMeL]D-Piperidide; lactam N-9), the Papp A→B at 180 min was 1.2 ×10⁻⁶ cm/s.

`CC(C)C[C@@H]1NC(=O)[C@H](CC(C)C)N(C)C(=O)[C@H](CC(C)C)N(C)C(=O)CN(C)C(=O)[C@H]([C@@H](C)O)NC(=O)[C@H](CC(C)C)N(C)C(=O)[C@H](CC(C)C)N(C)C(=O)[C@H](Cc2ccc(C(F)(F)F)cc2)NC(=O)[C@@H](C(C)C)NC(=O)C[C@@H](C(=O)N2CCCCC2)NC1=O` [pd148] ([dV][Phe(4-CF3)][NMeL][NMeL]T[Sar][NMeL][NMeL]LD-Piperidide; lactam N-10) gave a Papp A→B at 180 min of 1.1 ×10⁻⁶ cm/s.

With `CC(C)C[C@@H]1NC(=O)[C@H](CC(C)C)N(C)C(=O)[C@@H](C)NC(=O)C[C@@H](C(=O)N2CCCCC2)N(C)C(=O)[C@H](CC(C)C)N(C)C(=O)[C@H]([C@@H](C)O)NC(=O)[C@H](CC(C)C)N(C)C(=O)[C@H](Cc2ccc(C(F)(F)F)cc2)NC1=O` [pd149] ([dA][NMeL]L[Phe(4-CF3)][NMeL]T[NMeL][NMeD]-Piperidide; lactam N-8), the Papp A→B at 180 min was determined as 1.7 ×10⁻⁶ cm/s.

Molecule `CC(C)C[C@H]1C(=O)N(C)CC(=O)N[C@@H](Cc2ccccc2)C(=O)N[C@@H](Cc2ccc(C(F)(F)F)cc2)C(=O)N(C)[C@@H](CC(C)C)C(=O)N(C)[C@@H](CC(C)C)C(=O)N[C@@H]([C@@H](C)O)C(=O)N(C)[C@H](C(=O)N2CCCCC2)CC(=O)N1C` [pd150] ([NMeL][Sar]F[Phe(4-CF3)][NMeL][NMeL]T[NMeD]-Piperidide; lactam N-8) returned a Papp A→B at 180 min of 1.7 ×10⁻⁶ cm/s.

The molecule `CC(C)C[C@@H]1NC(=O)C[C@@H](C(=O)N2CCCCC2)N(C)C(=O)[C@H](Cc2ccc(C(F)(F)F)cc2)NC(=O)[C@H](CC(C)C)N(C)C(=O)CN(C)C(=O)[C@H]([C@@H](C)O)NC(=O)[C@H](CC(C)C)N(C)C(=O)[C@H](CC(C)C)N(C)C1=O` [pd151] (L[NMeL][NMeL]T[Sar][NMeL][Phe(4-CF3)][NMeD]-Piperidide; lactam N-8) gave a Papp A→B at 180 min of 3.2 ×10⁻⁶ cm/s.

In turn, `CCCN1CC(=O)N(C)[C@@H](CC(C)C)C(=O)N[C@@H](COC(C)(C)C)C(=O)N[C@H](C(=O)N2CCCCC2)CC(=O)N(C)[C@@H](CC(C)C)C(=O)N[C@@H](Cc2ccc(C(F)(F)F)cc2)C(=O)N(C)[C@@H](CC(C)C)C(=O)N(C)[C@@H]([C@@H](C)CC)C(=O)N[C@@H]([C@@H](C)O)C1=O` [pd152] ([NMeL][Phe(4-CF3)][NMeL][NMeI]T[NPrGly][NMeL]S(tBu)D-Piperidide; lactam N-9) came in with a Papp A→B at 180 min of 1.2 ×10⁻⁶ cm/s.

Consider `CC(C)C[C@@H]1NC(=O)C[C@@H](C(=O)N2CCCCC2)NC(=O)[C@H](CC(C)C)N(C)C(=O)[C@H](CC(C)C)N(C)C(=O)[C@H](Cc2ccc(C(F)(F)F)cc2)NC(=O)[C@H](CC(C)C)N(C)C(=O)[C@H]([C@@H](C)O)NC(=O)[C@H](CC(C)C)N(C)C(=O)[C@H](C)N(C)C1=O` [pd153] (L[NMeA][NMeL]T[NMeL][Phe(4-CF3)][NMeL][NMeL]D-Piperidide; lactam N-9), for which the Papp A→B at 180 min is 1.4 ×10⁻⁶ cm/s.

Still in this series, the particulars now being: human, Caco-2, improved method, preincubation 20 to 24 hours; Papp, sample at 180 minutes; read-out: Caco-2.
In the case of `CCCN1CC(=O)N[C@@H]([C@@H](C)O)C(=O)N[C@H](C(=O)N2CCCCC2)CC(=O)N(C)[C@@H](CC(C)C)C(=O)N[C@@H](Cc2ccc(C(F)(F)F)cc2)C(=O)N(C)[C@@H](CC(C)C)C(=O)N(C)[C@@H](CC(C)C)C(=O)N[C@@H](COC(C)(C)C)C1=O` [pd147] ([NMeL][Phe(4-CF3)][NMeL][NMeL]S(tBu)[NPrGly]TD-Piperidide; lactam N-8), the Papp A→B at 180 min was 1.9 ×10⁻⁶ cm/s.

The series is the same for the next values; noted with them: human, Caco-2; read-out: Caco-2.
For the molecule `CC(C)C[C@@H]1NC(=O)[C@H](CC(C)C)N(C)C(=O)[C@H](C(C)C)NC(=O)C[C@@H](C(=O)N2CCCCC2)NC(=O)[C@H](CC(C)C)N(C)C(=O)[C@H]([C@@H](C)O)NC(=O)[C@H](Cc2ccc(C(F)(F)F)cc2)NC(=O)[C@H](CC(C)C)N(C)C(=O)[C@H](C)N(C)C1=O` [pd146] (V[NMeL]L[NMeA][NMeL][Phe(4-CF3)]T[NMeL]D-Piperidide; lactam N-9), the Papp A→B at 180 min came out at 1.7 ×10⁻⁶ cm/s.
